Measured values as given in ChEMBL document CHEMBL1201862, “PubChem BioAssay data set” (2004).
Calls of active or inactive are those of the source.

Experiments:
HEK293 = assay: cells; assay type: functional, cell-based; conditions: Homo sapiens
[1] = biological target: T1, Nuclear receptor subfamily 0 group B member 1 (Homo sapiens, UniProt P51843); assay: Luminescence-based cell-based high throughput dose response assay for inhibitors of the orphan nuclear receptor subfamily 0, group B, member 1 (DAX1; NR0B1). [Related pubchem assays (depositor defined):AID504766, AID504790]; assay type: functional
T1 sequence (P51843 whole entry): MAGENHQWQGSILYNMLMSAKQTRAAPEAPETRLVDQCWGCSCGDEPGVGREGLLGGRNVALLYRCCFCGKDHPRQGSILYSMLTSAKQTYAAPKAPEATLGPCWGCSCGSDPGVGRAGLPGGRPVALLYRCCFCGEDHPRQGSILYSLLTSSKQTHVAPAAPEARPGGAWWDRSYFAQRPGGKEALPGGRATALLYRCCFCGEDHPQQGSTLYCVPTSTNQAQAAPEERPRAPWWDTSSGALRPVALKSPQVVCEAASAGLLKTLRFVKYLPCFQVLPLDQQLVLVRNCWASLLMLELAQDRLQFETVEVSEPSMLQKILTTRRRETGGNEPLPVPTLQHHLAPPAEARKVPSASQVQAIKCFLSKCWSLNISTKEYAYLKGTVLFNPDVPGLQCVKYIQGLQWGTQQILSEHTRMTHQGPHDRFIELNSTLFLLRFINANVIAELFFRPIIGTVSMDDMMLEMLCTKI

Aminopeptidase N = biological target: T2, Aminopeptidase N (Plasmodium falciparum FcB1/Columbia, UniProt O96935); assay: P. falciparum M1AAP inhibitors, biochemical, fluorogenic H-Leu-NHMec substrate, 1536-well (AID 1445); parameters: species or system Plasmodium falciparum 3D7, 3D7
T2 sequence (O96935 whole entry): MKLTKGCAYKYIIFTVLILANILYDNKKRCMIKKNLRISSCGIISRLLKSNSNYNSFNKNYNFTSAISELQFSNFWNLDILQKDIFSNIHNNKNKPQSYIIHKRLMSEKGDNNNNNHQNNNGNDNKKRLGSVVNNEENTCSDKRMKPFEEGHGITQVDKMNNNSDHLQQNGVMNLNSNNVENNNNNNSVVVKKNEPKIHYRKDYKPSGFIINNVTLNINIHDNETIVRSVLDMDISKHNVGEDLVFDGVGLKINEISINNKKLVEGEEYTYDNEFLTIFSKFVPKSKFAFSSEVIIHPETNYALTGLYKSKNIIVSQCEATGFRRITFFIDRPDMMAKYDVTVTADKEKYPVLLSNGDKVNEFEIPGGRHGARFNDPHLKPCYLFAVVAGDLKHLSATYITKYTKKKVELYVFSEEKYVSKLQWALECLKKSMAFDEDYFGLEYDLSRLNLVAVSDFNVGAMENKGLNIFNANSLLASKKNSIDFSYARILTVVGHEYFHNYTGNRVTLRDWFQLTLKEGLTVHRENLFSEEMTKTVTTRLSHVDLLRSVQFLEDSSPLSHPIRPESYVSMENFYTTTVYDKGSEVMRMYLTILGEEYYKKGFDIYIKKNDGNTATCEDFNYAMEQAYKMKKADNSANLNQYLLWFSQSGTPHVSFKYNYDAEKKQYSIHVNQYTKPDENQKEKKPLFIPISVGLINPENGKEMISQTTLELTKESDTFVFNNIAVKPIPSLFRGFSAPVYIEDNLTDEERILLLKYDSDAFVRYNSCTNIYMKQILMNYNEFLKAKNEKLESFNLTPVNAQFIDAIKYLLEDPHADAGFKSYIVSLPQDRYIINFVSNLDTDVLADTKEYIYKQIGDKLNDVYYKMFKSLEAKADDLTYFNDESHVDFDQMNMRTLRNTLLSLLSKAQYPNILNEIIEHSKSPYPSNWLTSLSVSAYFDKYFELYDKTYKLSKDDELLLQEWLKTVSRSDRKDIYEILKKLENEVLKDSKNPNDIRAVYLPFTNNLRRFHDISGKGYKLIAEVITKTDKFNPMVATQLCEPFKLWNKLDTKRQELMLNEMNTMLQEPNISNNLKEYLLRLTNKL

[2] = growth suppression of PTEN-null colon cells, dose response, cell-based, HCT116 PTEN knockout (AID 1047); assay type: functional;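 note: HCT116 colon tumor cells with PTEN knocked out; cells exposed to compound for 60 hours before readout; potency for loss of cell viability measured by luminescence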
[3] = growth suppression of beta-catenin-knockout colon cells, dose response, cell-based, HCT116, human colon tumor (AID 1045); assay type: functional;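 note: HCT116 colon tumor cells with beta catenin knocked out; cells exposed to compound for 60 hours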
[4] = THP-1 cell cytotoxicity, dose response, cytotoxicity control for non-replicating M. tuberculosis project (AID 489025); assay type: functional
[5] = Vero E6 cell cytotoxicity, dose response, cytotoxicity control for non-replicating M. tuberculosis project, secondary assay (AID 492998); assay type: functional, VeroE6; conditions: Vero C1008
cells = assay type: functional
Leucine aminopeptidase = biological target: T3, Leucine aminopeptidase (Plasmodium falciparum 3D7, UniProt Q8IL11); assay: P. falciparum M17LAP inhibitors, primary screen, biochemical, fluorogenic H-Leu-NHMec substrate, 1536-well (AID 1619); assay type: functional
T3 sequence (Q8IL11 whole entry): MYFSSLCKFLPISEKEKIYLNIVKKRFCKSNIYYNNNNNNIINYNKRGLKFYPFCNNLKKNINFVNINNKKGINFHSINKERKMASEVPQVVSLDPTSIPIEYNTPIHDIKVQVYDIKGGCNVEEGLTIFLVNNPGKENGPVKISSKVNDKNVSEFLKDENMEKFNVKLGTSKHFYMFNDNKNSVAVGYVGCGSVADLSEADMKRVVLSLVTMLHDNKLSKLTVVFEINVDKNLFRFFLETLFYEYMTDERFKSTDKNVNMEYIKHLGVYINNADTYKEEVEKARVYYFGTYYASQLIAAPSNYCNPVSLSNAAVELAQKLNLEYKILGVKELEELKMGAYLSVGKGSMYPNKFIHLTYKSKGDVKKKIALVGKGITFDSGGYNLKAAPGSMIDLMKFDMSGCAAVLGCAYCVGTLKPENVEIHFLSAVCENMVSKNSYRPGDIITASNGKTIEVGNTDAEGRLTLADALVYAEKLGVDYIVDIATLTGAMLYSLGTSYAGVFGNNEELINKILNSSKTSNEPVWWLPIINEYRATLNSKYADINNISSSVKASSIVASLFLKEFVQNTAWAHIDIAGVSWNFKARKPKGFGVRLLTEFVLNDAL

[6] = biological target: T4, Mannose-6-phosphate isomerase (Homo sapiens, UniProt P34949); assay: human PMI inhibitors, high substrate, primary screen, biochemical, fluorescence intensity, high mannose 6-phosphate (AID 1220)
T4 sequence (P34949 whole entry): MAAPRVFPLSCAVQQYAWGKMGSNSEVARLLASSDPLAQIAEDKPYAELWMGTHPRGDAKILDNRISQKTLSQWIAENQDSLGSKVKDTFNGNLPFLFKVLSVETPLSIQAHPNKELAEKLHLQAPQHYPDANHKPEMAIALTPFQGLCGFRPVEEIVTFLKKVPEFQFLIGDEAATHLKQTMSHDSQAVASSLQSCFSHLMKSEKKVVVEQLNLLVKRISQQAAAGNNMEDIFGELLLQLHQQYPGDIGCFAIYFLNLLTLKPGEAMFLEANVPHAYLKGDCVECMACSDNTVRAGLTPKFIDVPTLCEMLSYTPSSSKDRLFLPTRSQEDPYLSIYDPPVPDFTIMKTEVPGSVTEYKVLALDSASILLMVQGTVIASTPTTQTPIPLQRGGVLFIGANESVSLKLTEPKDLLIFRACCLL

[7] = biological target: T5, Rac GTPase-activating protein 1 (Homo sapiens, UniProt Q9H0H5); assay: MgcRacGAP GTPase-activating activity inhibitors, confirmation, biochemical, ADP Hunter fluorescence, primary and confirmatory (AID 624330); assay type: functional
T5 sequence (Q9H0H5 whole entry): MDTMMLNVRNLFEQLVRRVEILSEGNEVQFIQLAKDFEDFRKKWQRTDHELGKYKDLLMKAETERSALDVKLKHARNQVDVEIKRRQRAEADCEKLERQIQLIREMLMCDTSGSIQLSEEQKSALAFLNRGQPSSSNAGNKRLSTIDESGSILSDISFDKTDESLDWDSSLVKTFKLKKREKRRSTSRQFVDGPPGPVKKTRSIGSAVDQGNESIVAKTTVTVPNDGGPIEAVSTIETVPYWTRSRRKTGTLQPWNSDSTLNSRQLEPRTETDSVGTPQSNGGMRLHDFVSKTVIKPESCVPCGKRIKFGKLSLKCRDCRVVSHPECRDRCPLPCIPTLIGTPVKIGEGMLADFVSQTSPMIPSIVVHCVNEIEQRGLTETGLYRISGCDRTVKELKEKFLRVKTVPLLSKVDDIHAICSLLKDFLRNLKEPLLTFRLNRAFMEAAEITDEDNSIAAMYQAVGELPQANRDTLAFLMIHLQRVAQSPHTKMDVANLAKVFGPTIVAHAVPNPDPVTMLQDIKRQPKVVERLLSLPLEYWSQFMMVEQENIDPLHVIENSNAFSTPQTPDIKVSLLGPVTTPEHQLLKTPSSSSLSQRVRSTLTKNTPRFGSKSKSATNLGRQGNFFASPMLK

[8] = inhibitors of Vif binding to APOBEC3G peptide, primary screen, biochemical, TR-FRET, GST-Vif 1-94, biotin-A3G peptide, dose response retest (AID 1117319); assay type: functional;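 note: TR-FRET signal of purified GST-Vif binding a biotinylated A3G peptide; inhibitors lower the FRET signal by blocking Vif and A3G binding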
[9] = THP-1 cell cytotoxicity, dose response, cytotoxicity control for Vif-APOBEC3G degradation inhibitor project, THP-1 cells (AID 1117359); assay type: functional; conditions: Human immunodeficiency virus 1, THP-1
Genome polyprotein = Genome polyprotein (dengue virus type 2, UniProt P29990); assay: Dengue-2 NS5 methyltransferase inhibitors, primary screen, biochemical, confirmation dose response (AID 588689); assay type: functional
[10] = P. falciparum 3D7-ScDHODH growth inhibitors, dose response, SYBR Green, dry powder samples (AID 1159570); assay type: functional, cell-based;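 note: parasite growth measured after 72 hours of compound exposure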
[11] = P. falciparum Dd2 growth inhibitors, dose response, SYBR Green, cherry-picked samples (AID 1159567); assay type: functional, cell-based
[12] = P. falciparum Dd2 growth inhibitors, dose response, SYBR Green, dry powder samples (AID 1159566); assay type: functional, cell-based;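 note: potency for growth inhibition with lower SYBR green DNA signal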
[13] = P. falciparum ATP4 D1247Y mutant growth inhibitors, dose response, NITD609-resistant line, SYBR Green, dry powder (AID 1159571); assay type: functional, cell-based;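 note: parasites synchronized at ring stage by sorbitol before testing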

Chain of Genome polyprotein (P29990 2492-3391 limits assumed): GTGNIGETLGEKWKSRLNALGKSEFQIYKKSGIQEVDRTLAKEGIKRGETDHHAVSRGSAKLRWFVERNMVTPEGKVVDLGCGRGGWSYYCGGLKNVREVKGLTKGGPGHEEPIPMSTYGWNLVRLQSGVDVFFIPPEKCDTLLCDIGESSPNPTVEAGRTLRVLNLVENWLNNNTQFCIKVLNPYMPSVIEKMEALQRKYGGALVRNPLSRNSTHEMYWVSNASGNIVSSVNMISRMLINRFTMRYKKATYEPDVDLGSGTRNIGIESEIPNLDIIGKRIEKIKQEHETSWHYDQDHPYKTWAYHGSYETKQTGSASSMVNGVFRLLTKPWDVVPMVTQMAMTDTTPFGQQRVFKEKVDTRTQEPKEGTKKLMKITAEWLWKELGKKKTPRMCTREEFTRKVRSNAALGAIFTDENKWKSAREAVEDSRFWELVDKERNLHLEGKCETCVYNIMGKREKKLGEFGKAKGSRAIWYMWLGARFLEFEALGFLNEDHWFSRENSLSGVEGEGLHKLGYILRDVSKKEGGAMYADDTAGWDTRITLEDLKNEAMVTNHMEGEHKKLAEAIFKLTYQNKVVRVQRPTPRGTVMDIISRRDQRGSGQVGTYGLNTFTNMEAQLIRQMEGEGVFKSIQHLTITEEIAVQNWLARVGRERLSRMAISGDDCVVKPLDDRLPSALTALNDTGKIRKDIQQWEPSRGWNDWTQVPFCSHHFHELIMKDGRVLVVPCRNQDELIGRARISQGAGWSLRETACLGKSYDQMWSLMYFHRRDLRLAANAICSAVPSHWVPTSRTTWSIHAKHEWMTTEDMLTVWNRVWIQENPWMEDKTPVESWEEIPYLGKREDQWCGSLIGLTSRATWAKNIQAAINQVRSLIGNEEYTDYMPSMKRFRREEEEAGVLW

Structure (SMILES): COc1ccc([N+](=O)[O-])cc1NC(=S)NC(C)=O
- IC50 (HEK293): > 67.6 µM (inactive)
- IC50 [1]: > 67.6 µM (inactive)

Structure (SMILES): CCc1c(C)c2ccc(O)c(CN(C)C)c2oc1=O
- IC50 (Aminopeptidase N): 28.9 µM (active)

Structure (SMILES): Cc1cc(NC(=O)C2CCCCC2)n(-c2nc3ccccc3[nH]2)n1
- EC50 [2]: 16.9 µM (active)
- EC50 [3]: 13.6 µM (active)
- CC50 [4]: > 40 µM (active)
- CC50 [5]: > 20 µM (active)
- IC50 (cells): 5.56 µM (active)

Structure (SMILES): COc1ccccc1NC(=O)N1CCCC(C(=O)Nc2cccc(C)c2C)C1 (centres undefined)
- IC50 (HEK293): > 67.6 µM (inactive)
- IC50 [1]: > 67.6 µM (inactive)

Structure (SMILES): Cc1cc(=O)c2c(O)c(O)ccc2o1
- IC50 (Leucine aminopeptidase): 110 µM (active)
- IC50 [6]: > 50 µM (not active)
- IC50 [7]: 32.2 µM (active)
- IC50 [8]: > 100 µM (active)

Structure (SMILES): C#CCOC(=O)C[N+](C)(C)CC#Cc1ccccc1
- IC50 (HEK293): > 67.6 µM (inactive)
- IC50 [1]: > 67.6 µM (inactive)

Structure (SMILES): Nc1ccc(N=Nc2ccc(O)cc2)c(N)n1
- IC50 [7]: 8.44 µM (active)
- CC50 [9]: 25.8 µM (active)

Structure (SMILES): O=C(O)COc1ccccc1/C=N/Nc1ccc(S(=O)(=O)Nc2ccc(Cl)cc2)cc1[N+](=O)[O-]
- IC50 (Aminopeptidase N): 38.9 µM (active)
- IC50 (Genome polyprotein): 36.7 µM (active)

Structure (SMILES): O=C(Nc1ccccc1)N1CCCCN2[C@@H](CO)[C@H](c3ccc(C#Cc4cccnc4)cc3)[C@@H]2C1
- AC50 [10]: 0.476 µM (active)
- AC50 [11]: 0.633 µM (active)
- AC50 [12]: 0.552 µM (active)
- AC50 [13]: 0.573 µM (active)
